In publication PMC11098465, “A comparative analysis of peptide-delivered antisense antibiotics using diverse nucleotide mimics” (RNA, 2024):

How the values were obtained:
[1] = tested on: acpP::gfp reporter transcript; assay: In vitro translation of acpP::gfp reporter (PURExpress) with western blot; type: biochemical, Salmonella; parameters: key to Inhibition of translation in vitro: +++: Effect strength is represented by additional (+) signs.; ++: Effect strength is represented by additional (+) signs.; Effect strength is represented by additional (+) signs; conditions: unconjugated ASO; for Inhibition of in vitro translation of acpP::gfp (in words): western blot of AcpP(1–17)::GFP; for Inhibition of translation in vitro: ASO:RNA 0.6:1 to 5:1, 100 nM RNA, 2 h 37°C, summary grade
Experimental: As a next step, we used a cell-free in vitro translation system ([Popella et al. 2022]) to investigate whether ASO binding to mRNA leads to a block in protein synthesis. As a template, we used the acpP sequence spanning −40 to +51 relative to the AUG start codon fused to a gfp reporter gene (acpP::gfp). This construct was in vitro transcribed, preincubated with different ASOs at different ratios and subsequently translated in vitro. Water was used as a negative control.
For the generation of target RNA::gfp fusion constructs, we used a previously established protocol ([Popella et al. 2022]) and the oligonucleotides JVO-19760/JVO-19761 (Supplemental Table S1) to amplify the genomic region spanning nucleotides –40 to +51 relative to the translational start codon of acpP. The sense oligonucleotide was fused to a T7 promoter sequence for subsequent transcription of the final fusion construct in vitro. The antisense oligonucleotide contained a 30 nt overlapping region with gfp for subsequent fusion PCR with full-length gfp (pXG-10; JVO-19762/JVO-19763) (Supplemental Table S1). The PCR products were purified with NucleoSpin Gel and PCR Clean-up (Macherey-Nagel) according to the manufacturer's instructions, and DNA concentration was quantified with a NanoDrop spectrophotometer (A260 nm).
PCR products were used for T7 RNA polymerase-driven transcription in vitro using the MEGAscript T7 kit (Ambion/Thermo Scientific), according to the manufacturer's instructions and analogous to our previous publication ([Popella et al. 2022]). The concentration of the RNA solution was quantified with Qubit (Fisher Scientific), and the expected product size and RNA integrity were verified on a 6% PAA, 7 M urea gel.
For in vitro translation of target RNA::gfp fusion constructs, the PURExpress In Vitro Protein Synthesis Kit (New England Biolabs, E6800L) was used as described previously ([Popella et al. 2022]). Briefly, the final volume of each in vitro translation reaction was set to 10 µL. One microliter of different concentrations of ASOs ranging from 10 to 0.625 µM was added to 1 µL of in vitro transcribed heat-denatured RNA (1 µM) to adjust the final RNA concentration to 100 nM. The mixtures were preincubated at 37°C for 5 min. Then 4 µL of Solution A and 3 µL of Solution B were added to the preannealed mixtures. After 2 h at 37°C, protein samples were denatured in 1× reducing protein loading buffer (62.6 mM Tris–HCl pH 6.8, 2% SDS, 0.1 mg/mL bromphenol blue, 15.4 mg/mL DTT, 10% glycerol) at 95°C for 5 min.
To visualize in vitro translated proteins, samples were separated on SDS-PAA (12% PAA) gels, with subsequent semi-dry western blot transfer on nitrocellulose membranes. Membranes were blocked with 10% skim milk (in 1× TBS-T) for 1 h and probed with anti-GFP antibody (1:1000; Sigma-Aldrich) in 5% skim milk (in 1× TBS-T) overnight at 4°C. After washing in 1× TBS-T and incubation with an HRP-conjugated secondary antibody (1:5000; Thermo Scientific) in 1× TBS-T, the membrane was incubated with a developing solution kit (Amersham ECL Select Western Blotting Detection Reagent), and protein levels were detected using an ImageQuant LAS 500 (GE Healthcare Life Sciences). Images were processed and band intensities quantified using ImageJ. Protein bands were normalized to the water control.

[2] = tested on: 5′ Cy5-labeled acpP target RNA (40 nt); assay: Electrophoretic mobility shift assay (EMSA); type: binding, Salmonella; parameters: key to mRNA hybridization (EMSA): +++: Effect strength is represented by additional (+) signs.; ++: Effect strength is represented by additional (+) signs.; Effect strength is represented by additional (+) signs; conditions: unconjugated ASO, ASO:RNA 0.3:1 to 2.5:1; for Shift of target mRNA in EMSA (in words): 30 min RT, 15% native PAA gel; for mRNA hybridization (EMSA): summary grade
Experimental: To compare the ability of the unconjugated ASOs to hybridize to the target transcript, we used electrophoretic mobility shift assays (EMSAs), thermal UV melting curves, and microscale thermophoresis (MST). We first conducted EMSAs using a 40 nt target RNA sequence (nt −20 to +20 relative to the acpP translational start codon), which was 5′-labeled with a Cy5 dye. Sequence-specific ASOs were added at defined ASO:RNA ratios, while water or a scrambled PNA (PNAscr) were used as negative controls. We performed these binding studies with unconjugated ASOs, because the KFF carrier peptide is cleaved during transport into the bacterial cytoplasm ([Yavari et al. 2021]). […] The DNA-PTO modification is known to reduce the binding affinity of the ASO to its target RNA ([Chan et al. 2006]), and a 10mer might be too short to mediate interactions under our experimental conditions. To test if an excess of unspecific RNA impacts target binding, we also included samples that contained 1 μg yeast tRNA.
The EMSA was performed with a Cy5 5′-labeled RNA (purchased from Eurofins) encompassing the sequence spanning nucleotides −20 to +20 of acpP relative to the translation start codon. For annealing, TM buffer (10 mM Tris-HCl, 50 mM MgCl2) was used. First, 20 µM RNA was denatured by incubation at 95°C for 5 min followed by placement on ice. Then 1 µL of RNA (spiked with or without 1 µL of yeast tRNA [Ambion at a concentration of 10 mg/mL]) was added to PCR tubes containing 8 µL of water. To this, 1 µL of ASOs at the indicated concentrations (6.25–50 µM) was added to adjust ASO:RNA ratios of 0.3:1 to 2.5:1. As negative control, water was added instead of ASO, while a PNAscr sequence served as sequence-unspecific negative control (Fig. 2; Supplemental Fig. S2). These mixtures were incubated for 30 min at room temperature (RT), followed by the addition of 10 µL 2× gel loading (GL) buffer for subsequent loading on native 15% PAA RNA gel without urea (20 µL/sample; 6 µL of a 50 bp DNA marker + 14 µL 1× GL). The gel was run at 100–120 V for 2–3 h, concomitantly stained with SYBR gold (Thermo Fisher Scientific) for 15 min and imaged on Geldoc (Isogen Life Science B.V.).

Substance	Inhibition of in vitro translation of acpP::gfp (in words) [1]	Shift of target mRNA in EMSA (in words) [2]	Inhibition of translation in vitro [1]	mRNA hybridization (EMSA) [2]
DNA-PTO: phosphorothioate-modified DNA 10mer ASO, sequence CTCATACTCT, targeting acpP −5 to +5 (DNA, all phosphorothioate, methylation of C not given here)	did not inhibit protein synthesis	did not interact with the target mRNA at any of the concentrations tested	–	–
LNA: 2′–4′-locked RNA 10mer ASO, sequence CTCATACTCT, targeting acpP −5 to +5 (all LNA, backbone and methylation of C not given here)	substantially blocking in vitro translation of acpP::gfp at 1.25× molar excess	concentration-dependent shift of the target mRNA, starting at a 0.3:1 ratio of ASO:RNA	+++	+++
PMO: phosphorodiamidate morpholino 10mer ASO, sequence CTCATACTCT, targeting acpP −5 to +5 (all phosphorodiamidate morpholino (PMO))	less pronounced	limited binding even at 2.5× excess	++	+
PNA: peptide nucleic acid 10mer ASO, sequence CTCATACTCT, targeting acpP −5 to +5 (all peptide nucleic acid (PNA))	substantially blocking in vitro translation of acpP::gfp at 1.25× molar excess	concentration-dependent shift of the target mRNA, starting at a 0.3:1 ratio of ASO:RNA	+++	+++
RNA-F: 2′-fluorinated RNA 10mer ASO, sequence CTCATACTCT, targeting acpP −5 to +5 (all 2'-fluoro, backbone and T or U not given here)	less pronounced	concentration-dependent shift of the target mRNA, starting at a 0.3:1 ratio of ASO:RNA	++	++
RNA-MOE: 2′-methoxyethylated RNA 10mer ASO, sequence CTCATACTCT, targeting acpP −5 to +5 (all 2'-MOE, backbone and methylation of C not given here)	substantially blocking in vitro translation of acpP::gfp at 1.25× molar excess	concentration-dependent shift of the target mRNA, starting at a 0.3:1 ratio of ASO:RNA	+++	++
RNA-OMe: 2′-methylated RNA 10mer ASO, sequence CTCATACTCT, targeting acpP −5 to +5 (all 2'-O-methyl, backbone and T or U not given here)	less pronounced	did not interact with the target mRNA at any of the concentrations tested	–	–
